Measured values reported in US20240150423A1, “GLP-1 ANALOGUE-MODIFIED DIMERS WITH DIFFERENT CONFIGURATIONS, PREPARATION METHOD THEREOF, AND APPLICATION THEREOF IN TREATMENT OF TYPE II DIABETES” (Nanjing Finepeptide Biopharmaceutical Co.,Ltd, priority 2019, published 2024).
Non-standard residues stand in square brackets, D forms with d. No end group written: not given here. Aib = CC(C)(N)C(=O)O

Test system: Normal Kunming (KM) mice
Test: multiple OGTT (mOGTT): hypoglycemic duration after a single administration
Assay type: in vivo
Conditions: monomeric peptides, single injection at the same dose (1.126 nmol), subcutaneous
Summary of the method: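 Normal Kunming mice given a single dose, then oral glucose challenges; tail-blood glucose read by meter at 0, 10, 20, 40, 60 and 120 min. Duration scored as hypoglycemic period until group mean glucose exceeded the NaCl control twice.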

Row | Substance | Hypoglycemic [days] | Hypoglycemic (day)
1 | His-Ala-Glu-Gly-Thr-Phe-Thr-Ser-Asp-Val-Ser-Cys-Tyr-Leu-Glu-Gly-Gln-Ala-Ala-Lys[N-ϵ-(N-α-Palmitoyl)]-Glu-Phe-Ile-Ala-Trp-Leu-Val-Arg-Gly-Arg-Gly-OH (HAEGTFTSDVSCYLEGQAAXEFIAWLVRGRG; not fully specified; palmitoyl on Lys side chain; C-terminal acid; Sequence is synthesized; (20)..(20) Xaa is 26Lys[N-e-(N-a-palmitoyl-L-g-glutamyl)]; (31)..(31) C-terminal) [G4 series 34] | 4 | 
2 | His-Ala-Glu-Gly-Thr-Phe-Thr-Ser-Asp-Val-Ser-Cys-Tyr-Leu-Glu-Gly-Gln-Ala-Ala-Lys[N-ϵ-(N-α-Palmitoyl-L-γ-glutamyl)]-Glu-Phe-Ile-Ala-Trp-Leu-Val-Arg-Gly-Arg-Gly-NH2 (HAEGTFTSDVSCYLEGQAAXEFIAWLVRGRG; palmitoyl-γ-glutamyl on Lys; C-terminal amide; Sequence is synthesized; (20)..(20) Xaa is 26Lys[N-e-(N-a-palmitoyl-L-g-glutamyl)]; (31)..(31) N-terminal) [G3 series 22] | 6 | 
3 | His-Ala-Glu-Gly-Thr-Phe-Thr-Ser-Asp-Val-Ser-Cys-Tyr-Leu-Glu-Gly-Gln-Ala-Ala-Lys[N-ϵ-(N-α-Palmitoyl-L-γ-glutamyl)]-Glu-Phe-Ile-Ala-Trp-Leu-Val-Lys[N-ϵ-(N-α-Palmitoyl-L-γ-glutamyl)]-Gly-Arg-Gly-NH2 (HAEGTFTSDVSCYLEGQAAXEFIAWLVXGRG; two palmitoyl-gamma-Glu on Lys; C-terminal amide; Sequence is synthesized; (20)..(20) Xaa is 26Lys[N-e-(N-a-palmitoyl-L-g-glutamyl)]; (28)..(28) Xaa is 26Lys[N-e-(N-a-palmitoyl-L-g-glutamyl)]; (31)..(31) N-terminal) [G5 series 41] | 3 | 
4 | His-Ala-Glu-Gly-Thr-Phe-Thr-Ser-Asp-Val-Ser-Cys-Tyr-Leu-Glu-Gly-Gln-Ala-Ala-Lys[N-ϵ-(N-α-Palmitoyl-L-γ-glutamyl)]-Glu-Phe-Ile-Ala-Trp-Leu-Val-Lys[N-ϵ-(N-α-Palmitoyl-L-γ-glutamyl)]-Gly-Arg-Gly-OH (HAEGTFTSDVSCYLEGQAAXEFIAWLVXGRG; two palmitoyl-gamma-Glu on Lys; C-terminal acid; Sequence is synthesized; (20)..(20) Xaa is 26Lys[N-e-(N-a-palmitoyl-L-g-glutamyl)]; (28)..(28) Xaa is 26Lys[N-e-(N-a-palmitoyl-L-g-glutamyl)]; (31)..(31) C-terminal) [G5 series 40] | 1 | 
5 | His-Ala-Glu-Gly-Thr-Phe-Thr-Ser-Asp-Val-Ser-Cys-Tyr-Leu-Glu-Gly-Gln-Ala-Ala-Lys[N-ϵ-(N-α-oleoyl)]-Glu-Phe-Ile-Ala-Trp-Leu-Val-Arg-Gly-Arg-Gly-NH2 (HAEGTFTSDVSCYLEGQAAXEFIAWLVRGRG; not fully specified; oleoyl on Lys; C-terminal amide; Sequence is synthesized; (20)..(20) Xaa is 26Lys[N-e-(N-a-oleoyl-L-g-glutamyl)]; (31)..(31) N-terminal) [G4 series 33] | 7 | 
6 | His-Ala-Glu-Gly-Thr-Phe-Thr-Ser-Asp-Val-Ser-Cys-Tyr-Leu-Glu-Gly-Gln-Ala-Ala-Lys[N-ϵ-(N-α-oleoyl)]-Glu-Phe-Ile-Ala-Trp-Leu-Val-Arg-Gly-Arg-Gly-OH (HAEGTFTSDVSCYLEGQAAXEFIAWLVRGRG; not fully specified; oleoyl on Lys; C-terminal acid; Sequence is synthesized; (20)..(20) Xaa is 26Lys[N-e-(N-a-oleoyl-L-g-glutamyl)]; (31)..(31) C-terminal) [G4 series 32] | 5 | 
7 | His-Ala-Glu-Gly-Thr-Phe-Thr-Ser-Asp-Val-Ser-Cys-Tyr-Leu-Glu-Gly-Gln-Ala-Ala-Lys[N-ϵ-(N-α-oleoyl-L-γ-glutamyl)]-Glu-Phe-Ile-Ala-Trp-Leu-Val-Arg-Gly-Arg-Gly-OH (HAEGTFTSDVSCYLEGQAAXEFIAWLVRGRG; oleoyl-γ-glutamyl on Lys; C-terminal acid; Sequence is synthesized; (20)..(20) Xaa is 26Lys[N-e-(N-a-oleoyl-L-g-glutamyl)]; (31)..(31) C-terminal) [G3 series 21] | 4 | 
8 | His-Ala-Glu-Gly-Thr-Phe-Thr-Ser-Asp-Val-Ser-Ser-Tyr-Leu-Glu-Gly-Gln-Ala-Ala-Lys[N-ϵ-(N-α-Palmitoyl-γ-glutamyl)]-Glu-Phe-Ile-Ala-Trp-Leu-Val-Arg-Gly-Arg-Gly-Cys-OH (HAEGTFTSDVSSYLEGQAAXEFIAWLVRGRGC; palmitoyl-γ-glutamyl on Lys; C-terminal acid; Sequence is synthesized; (20)..(20) Xaa is 26Lys[N-e-(N-a-Palmitoyl-g-glutamyl)]; (32)..(32) C-terminal) [G1] |  | No hypoglycemic
9 | His-Ala-Glu-Gly-Thr-Phe-ThrCys-Asp-Val-Ser-Ser-Tyr-Leu-Glu-Gly-Gln-Ala-Ala-Lys[N-ϵ-(N-α-oleoyl-L-γ-glutamyl)]-Glu-Phe-Ile-Ala-Trp-Leu-Val-Arg-Gly-Arg-Gly-OH (HAEGTFTCDVSSYLEGQAAXEFIAWLVRGRG; oleoyl-gamma-Glu on Lys; C-terminal acid; Sequence is synthesized; (20)..(20) Xaa is 26Lys[N-e-(N-a-oleoyl-L-g-glutamyl)]; (31)..(31) C-terminal) [G8 series 58] | 1 | 
10 | His-aAib-Glu-Gly-Thr-Phe-Thr-Cys-Asp-Val-Ser-Ser-Tyr-Leu-Glu-Gly-Gln-Ala-Ala-Lys-Glu-Phe-Ile-Ala-Trp-Leu-Val-Arg-aAib-Arg-NH2 (H[Aib]EGTFTCDVSSYLEGQAAKEFIAWLVR[Aib]R-NH2; N-terminus assumed; SMILES CC[C@H](C)[C@H](NC(=O)[C@H](Cc1ccccc1)NC(=O)[C@H](CCC(=O)O)NC(=O)[C@H](CCCCN)NC(=O)[C@H](C)NC(=O)[C@H](C)NC(=O)[C@H](CCC(N)=O)NC(=O)CNC(=O)[C@H](CCC(=O)O)NC(=O)[C@H](CC(C)C)NC(=O)[C@H](Cc1ccc(O)cc1)NC(=O)[C@H](CO)NC(=O)[C@H](CO)NC(=O)[C@@H](NC(=O)[C@H](CC(=O)O)NC(=O)[C@H](CS)NC(=O)[C@@H](NC(=O)[C@H](Cc1ccccc1)NC(=O)[C@@H](NC(=O)CNC(=O)[C@H](CCC(=O)O)NC(=O)C(C)(C)NC(=O)[C@@H](N)Cc1c[nH]cn1)[C@@H](C)O)[C@@H](C)O)C(C)C)C(=O)N[C@@H](C)C(=O)N[C@@H](Cc1c[nH]c2ccccc12)C(=O)N[C@@H](CC(C)C)C(=O)N[C@H](C(=O)N[C@@H](CCCNC(=N)N)C(=O)NC(C)(C)C(=O)N[C@@H](CCCNC(=N)N)C(N)=O)C(C)C) [G8 series 64] | 2 | 
